Data as given in BindingDB's records for doi:10.1021/jm00081a009 (Glaxo Group Research, 1992).

Test: Kappa-opioid receptor agonist potency in vitro using rabbit vas deferens(LVD) preparation
`NC(=O)[C@@H]1CCN(C(=O)Cc2ccc(Cl)c(Cl)c2)[C@H](CN2CCCC2)C1` showed an IC50 of 1200 nM.
Work on `O=C(Cc1ccc(Cl)c(Cl)c1)N1CC2(CC[C@H]1CN1CCCC1)OCCO2` yielded an IC50 of 160 nM.
With `COC(=O)[C@H]1CC[C@@H](CN2CCCC2)N(C(=O)Cc2ccc(Cl)c(Cl)c2)C1` the IC50 was 300 nM.
For `NC(=O)[C@H]1CC[C@@H](CN2CCCC2)N(C(=O)Cc2ccc(Cl)c(Cl)c2)C1`, the IC50 was > 10000 nM.
Compound `O=C(Cc1ccc(Cl)c(Cl)c1)N1CCCCC1CN1CCCO1` (stereo not drawn) has an IC50 of 69 nM.
For `O=C1CC[C@@H](CN2CCCC2)N(C(=O)Cc2ccc(Cl)c(Cl)c2)C1`, the IC50 was 390 nM.
`COC(=O)C1=CCCN(CC2CCCCN2C(=O)Cc2ccc(Cl)c(Cl)c2)C1` (stereo not drawn) showed an IC50 of 15 nM.
With `COC(=O)[C@@H]1CCC[C@@H](CN2CCCC2)N1C(=O)Cc1ccc(Cl)c(Cl)c1` the IC50 was 110 nM.
For `NC(=O)[C@H]1CCC[C@@H](CN2CCCC2)N1C(=O)Cc1ccc(Cl)c(Cl)c1`, the IC50 was > 10000 nM.
In the case of `O=C1CCCN(C(=O)Cc2ccc(Cl)c(Cl)c2)C1CN1CCCC1` (stereo not drawn), the IC50 is reported as 2000 nM.
Compound `O=C(Cc1ccc(Cl)c(Cl)c1)N1CCCCC1CN1CC=CCC1` (stereo not drawn) has an IC50 of 6.3 nM.

Test: Opioid receptor kappa agonist potency was determined in vitro using rabbit vas deferens(LVD) preparation
Compound `O=C(Cc1ccc(Cl)c(Cl)c1)N1CCCCC1CN1CCC(O)C1` (stereo not drawn) has an IC50 of 0.88 nM.
Compound `COC(=O)/C=C1\CCN(CC2CCCCN2C(=O)Cc2ccc(Cl)c(Cl)c2)C1` (stereo not drawn) has an IC50 of 1020 nM.
`COC(=O)[C@@H]1CCN(C(=O)Cc2ccc(Cl)c(Cl)c2)[C@H](CN2CCCC2)C1` gave an IC50 of 250 nM.
In the case of `O=C(Cc1ccc(Cl)c(Cl)c1)N1CCC[C@@H](O)[C@H]1CN1CCCC1`, the IC50 is reported as 590 nM.
Work on `C=C1CCN(CC2CCCCN2C(=O)Cc2ccc(Cl)c(Cl)c2)C1` (stereo not drawn) yielded an IC50 of 29 nM.
Compound `O=C1CCN(C(=O)Cc2ccc(Cl)c(Cl)c2)C(CN2CCCC2)C1` (stereo not drawn) has an IC50 of 46 nM.
In the case of `C=CCC1(CN2CCCC2)CCCCN1C(=O)Cc1ccc(Cl)c(Cl)c1` (stereo not drawn), the IC50 is reported as > 10000 nM.
`O=C(Cc1ccc(Cl)c(Cl)c1)N1CCCCC1CN1CCCCC1` (stereo not drawn) gave an IC50 of 260 nM.
With `CC1(CN2CCCC2)CCCCN1C(=O)Cc1ccc(Cl)c(Cl)c1` (stereo not drawn) the IC50 was > 10000 nM.
`C[C@H]1CCC[C@@H](CN2CCCC2)N1C(=O)Cc1ccc(Cl)c(Cl)c1` gave an IC50 of 1.7 nM.
Work on `O=C(Cc1ccc(Cl)c(Cl)c1)N1CCC2(CC1CN1CCCC1)SCCS2` (stereo not drawn) yielded an IC50 of 5 nM.
Compound `O=C(Cc1ccc(Cl)c(Cl)c1)N1CC[C@H](O)C[C@H]1CN1CCCC1` has an IC50 of 1400 nM.
